The text below walks through data of patent US9777070B2, “Anti-PTK7 antibody-drug conjugates” (Pfizer Inc., priority 2014, dated 2017).

In brackets after ≈: the same amount, converted by molar mass. Square brackets hold non-standard residues; d marks the D form. Peptide text beside a SMILES is read from it. * marks the point of attachment. Dolaproine = CO[C@@H]([C@@H]1CCCN1)[C@@H](C)C(=O)O; Dil = CC[C@H](C)[C@H](NC)[C@@H](CC(=O)O)OC; Doe = c1ccc(C[C@H](N*)c2nccs2)cc1; Aib = CC(C)(N)C(=O)O

One assay has as its system H661 lung cancer cells. As to the kind of experiment: Microtubule structure by anti-tubulin immunofluorescence. It counts as cell-based, human. The following applies: 48 hours, ADC or mAb 0-4 μg/mL, free 0101 0.1-10 nM, FIG. 22. The protocol: The cells were then fixed in 3% paraformaldehyde, washed with PBS, permeabilized with 0.5% Triton-X® (Sigma Chemical) in PBS, washed with PBS, and incubated with blocking buffer (5% normal goat serum and 0.2% Tween-20 in PBS). Cells were incubated with the primary anti-α-tubulin antibody (Sigma NoT9026, clone DM1A) in blocking buffer for 1 hour at room temperature. Afterwards, the cells were washed with PBS and incubated for 30 minutes with an Alexa Fluor® 488-conjugated secondary antibody (Invitrogen Corp) and 4′,6-diamidino-2-phenylindole (DAPI) to stain the DNA. The cells were visualized on a Zeiss LSM 510 Meta confocal microscope.

The subject of the next assay is H661 cells. As to the kind of experiment: In vitro cytotoxicity, MTS, 4 days. It counts as cell-based. The conditions noted are these: Homo sapiens, NCI-H661, 96 h. The protocol: (§1) The cytotoxicity of the antibody-drug conjugate hu24-vc0101 was evaluated on cell lines that express the target PTK7. The engineered HEK293T-PTK7 over-expressing cell line was plated into a clear flat-bottom tissue culture plate (BD Falcon) at 500 cells per 180 μL of cell culture media per well. Human cancer cell lines were also tested in this assay and plated at a density that was previously determined to be optimal for each cell line according to their rate of growth (H661 1500 cells/well and H446 9600 cells/well in 150 μl). The cells were incubated overnight at 37° C. in a 5% CO2 incubator. On the following day, the hu24-vc0101 ADC and the 8.84 Ab-vc0101 ADC (negative control) were added to the cells on a 10 point concentration curve in triplicate samples starting with 3 or 10 μg/mL with 1:3 dilutions in cell culture media. The plate was incubated in a 37° C., 5% CO2 incubator for 4 days. The MTS assay (Promega CellTiter 96 Aqueous Non-Radioactive Cell Proliferation Assay) was used according to the supplier's instructions. 30 μL (H446, H661) or 40 μL (HEK293T-PTK7) of the combined MTS reagent was added to each well, and the plate was incubated in a 37° C., 5% CO2 incubator for 2 hours. The OD was determined at 490 nm with a 96-well plate reader. The average reading from wells with media alone was subtracted from the readings of wells with cells to control for background OD.

The next assay has as its system H446 cells. Description: In vitro cytotoxicity, MTS, 4 days. The conditions noted are these: Homo sapiens, NCI-H446, 96 h. It is filed as cell-based. How it is done: as §1

`CC[C@H](C)[C@@H]([C@@H](CC(=O)N1CCC[C@H]1[C@H](OC)[C@@H](C)C(=O)N[C@@H](Cc1ccccc1)c1nccs1)OC)N(C)C(=O)[C@@H](NC(=O)C(C)(C)N)C(C)C` [compound 0101, 2-methylalanyl-N-[(3R,4S,5S)-3-methoxy-1-{(2S)-2-[(1R,2R)-1-methoxy-2-methyl-3-oxo-3-{[(1S)-2-phenyl-1-(1,3-thiazol-2-yl)ethyl]amino}propyl]pyrrolidin-1-yl}-5-methyl-1-oxoheptan-4-yl]-N-methyl-L-valinamide] (H-[Aib]V[Dil][Dolaproine]-Doe): the “effect on microtubule structure and cell cycle” value in the assay on H661 lung cancer cells is “disrupted microtubule structure and led to G2/M cell cycle arrest”. For the same molecule, the IC50 – broadly, the concentration needed to halve the response being measured – in the assay on H661 cells was found to be 0.33 ng/mL (≈ 0.444 nM); with H446 cells it was 0.59 ng/mL (≈ 0.794 nM).
